Test results from US8455532B2, “Pyrazolyl acrylonitrile compounds and uses thereof” (Shenyang Research Institute of Chemical Industry Co., Ltd., priority 2009, dated 2013).
Where two headings read alike, the source gives them in different places.

Legend:
[1] = test system: adult spider mites (Tetranychus cinnabarinus); experiment: Test against adult spider mite, spray on bean leaves, mortality after 72 h; format: in vivo; conditions: for mortality at 0.63 ppm / mortality at 2.5 ppm / mortality at 5 ppm / mortality at 10 ppm / mortality at 1.25 ppm: Tetranychus cinnabarinus, read-out: Acaricidal activity against adult spider mites (mortality, %)
Protocol: (§1) According to the solubility of test compounds, the compounds are dissolved in acetone or dimethyl sulfoxide, and then diluted with 0.1% aqueous solution of Tween 80 to form 50 ml test liquid, the content of acetone or dimethyl sulfoxide in the total solution is not more than 10%.
The adult spider mites (Tetranychus cinnabarinus) were put into two true leaves of bean plants. After the number of mites were investigated, the solution of certain concentrations of test compounds was sprayed using a sprinkler and repeated three times. Then the leaves were maintained in standard observation room. After 72 h the survival mites in each leaf were observed, and mortality of the mites was determined.
According to above method, the representative compounds of this invention, compound KC, (compound 30 in JP2003201280A, E configuration), KC2 (compound 31 in JP2003201280A, Z configuration) and KC3 (compound 24 in CN101367784A) were chosen to parallel activity test against adult spider mites.

[2] = test system: egg of spider mite (Tetranychus cinnabarinus); experiment: Test against egg of spider mite, spray, incubation inhibition; format: in vivo; conditions: read-out: Acaricidal activity against eggs of spider mites (incubation inhibition rate, %)
Protocol: as §1
Two true leaves of bean plants were taken and one true leaf was removed. Then ten healthy female adult spider mites were put into the true leaf. The adult spider mites were removed after 24 h and the eggs were investigated. The solution of certain concentrations of test compounds was sprayed using a sprinkler and repeated three times. The untreated eggs were all incubated after 5 days. The unincubation of treated eggs in leaf were observed, and incubation inhibition rate of the eggs were determined.
According to the above method, high acaricidal compound 5.1, 90.1 in present invention, and known high acaricidal compound KC1 were chosen to parallel activity test against eggs of spider mites.

[3] = test system: deutonymph of spider mite (Tetranychus cinnabarinus); experiment: Test against deutonymph of spider mite, spray, mortality after 72 h; format: in vivo; conditions: read-out: Acaricidal activity against deutonymph of spider mites (mortality, %)
Protocol: as §1
Ten healthy female adult spider mites (Tetranychus cinnabarinus) were put into two true leaves of bean plants. The adult spider mites were removed after 24 h and the eggs were continued incubating. After ten days, the number of deutonymph were investigated and recorded. The solution of certain concentrations of test compounds was sprayed using a sprinkler and repeated three times. Then the deutonymph of spider mites were maintained in standard observation room. After 72 h, the survival mites in each leaf were observed, and mortality of the mites was determined.
According to above method, high acaricidal compound 5.1, 90.1 in present invention, and known high acaricidal compound KC1 were chosen to parallel activity test against deutonymph of spider mite.

[4] = test system: peach aphid (Myzus peisicae Sulzer); experiment: Test against peach aphid, spray on cabbage leaves, mortality after 72 h; format: in vivo
Protocol: as §1
The cabbage leaves with peach aphids were taken and after the number of peach aphids were investigated, the solution of certain concentrations of test compounds was sprayed using a sprinkler and repeated three times. Then the leaves were maintained in standard observation room. After 72 h, the survival peach aphids were observed, and mortality of the peach aphids was determined.

spider mites = experiment: Test of systemic activity against spider mite through root absorbtion; format: in vivo; conditions: root dip 24 h, 72 h after infestation
Protocol: The test compounds are dissolved in acetone, and then diluted with 0.1% aqueous solution of Tween 80 to form test solution in different concentration and every treatment was repeated three times. Water is blank control. The 10 mL test compound solution was added into the tube. Two true leaves bean plants were taken and the soil in the root was removed. The bean plant was dipped into the test solution in different concentration. After absorbing 24 h, 30 to 50 spider mites were put onto the true leaves. Then the bean plants were maintained in observation room at 25±1° C. After 72 h, the death and survival mites in each leaf was observed, the mortality of the mites and systemic activity was determined.

[5] = in JP2003206280A; cited from earlier work
spider mite = conditions: 400 ppm, in CN101367784A; cited from earlier work

CCn1nc(C)cc1C(O)=C(C#N)c1ccc(C(C)(C)C)cc1 [Compound 1, 3-(1-ethyl-3-methylpyrazol-5-yl)-2-(4-tertbutylphenyl)-3-hydroxy-acrylonitrile]
melting point: 70 to 72 °C

CCn1nc(C)cc1C(OC(=O)C(C)(C)C)=C(C#N)c1ccc(C(C)(C)C)cc1 [Compound 5.1]
Acaricidal activity against adult spider mites (mortality, %) ([1]; 1.25 ppm, spray): 98% | mortality at 0.63 ppm ([1]; 0.63 ppm, spray): 42% | mortality at 2.5 ppm ([1]; 2.5 ppm, spray): 100% | mortality at 5 ppm ([1]; 5 ppm, spray): 100% | mortality at 10 ppm ([1]; 10 ppm, spray): 100% | inhibition at 2.5 ppm [2]: 66% | inhibition at 5 ppm [2]: 100% | inhibition at 10 ppm [2]: 100% | mortality at 0.16 ppm ([3]; 0.16 ppm, spray): 94% | mortality at 0.63 ppm ([3]; 0.63 ppm, spray): 100% | mortality at 2.5 ppm ([3]; 2.5 ppm, spray): 100%

CCn1nc(C)cc1C(OC(=O)C(C)(C)C)=C(C#N)c1ccc(C(C)(C)C)cc1 [Compound 5.2]
Acaricidal activity against adult spider mites (mortality, %) ([1]; 0.63 ppm, spray): 56% | Acaricidal activity against adult spider mites (mortality, %) ([1]; 1.25 ppm, spray): 65% | Acaricidal activity against adult spider mites (mortality, %) ([1]; 2.5 ppm, spray): 87% | Acaricidal activity against adult spider mites (mortality, %) ([1]; 5 ppm, spray): 100% | Acaricidal activity against adult spider mites (mortality, %) ([1]; 10 ppm, spray): 100%

CCOC(=O)OC(=C(C#N)c1ccc(C(C)(C)C)cc1)c1cc(C)nn1CC [Compound 17.1]
melting point: 96 to 97 °C

CCn1nc(C)c(C)c1C(O)=C(C#N)c1ccc(C(C)(C)C)cc1 [Compound 39, 3-(1-ethyl-3,4-dimethylpyrazol-5-yl)-2-(4-tertbutylphenyl)-3-hydroxyl-acrylonitrile]
melting point: 86 to 88 °C

CCn1nc(C)c(C)c1C(OC(=O)C(C)(C)C)=C(C#N)c1ccc(C(C)(C)C)cc1 [Compound 42.1]
Acaricidal activity against adult spider mites (mortality, %) ([1]; 0.63 ppm, spray): 20% | Acaricidal activity against adult spider mites (mortality, %) ([1]; 1.25 ppm, spray): 93% | mortality at 2.5 ppm ([1]; 2.5 ppm, spray): 100% | mortality at 5 ppm ([1]; 5 ppm, spray): 100% | mortality at 10 ppm ([1]; 10 ppm, spray): 100%

CCn1nc(C)c(C)c1C(OC(=O)C(C)(C)C)=C(C#N)c1ccc(C(C)(C)C)cc1 [Compound 42.2]
Acaricidal activity against adult spider mites (mortality, %) ([1]; 0.63 ppm, spray): 51% | Acaricidal activity against adult spider mites (mortality, %) ([1]; 1.25 ppm, spray): 70% | Acaricidal activity against adult spider mites (mortality, %) ([1]; 2.5 ppm, spray): 100% | Acaricidal activity against adult spider mites (mortality, %) ([1]; 5 ppm, spray): 100% | Acaricidal activity against adult spider mites (mortality, %) ([1]; 10 ppm, spray): 100%

CCn1nc(C)c(C)c1C(OC(=O)C1CC1)=C(C#N)c1ccc(C(C)(C)C)cc1 [Compound 44.2]
mortality at 0.63 ppm ([1]; 0.63 ppm, spray): 65% | mortality at 1.25 ppm ([1]; 1.25 ppm, spray): 97% | mortality at 2.5 ppm ([1]; 2.5 ppm, spray): 100% | mortality at 5 ppm ([1]; 5 ppm, spray): 100% | mortality at 10 ppm ([1]; 10 ppm, spray): 100%

CCn1nc(C)c(C)c1C(OC(=O)C1CCC1)=C(C#N)c1ccc(C(C)(C)C)cc1 [Compound 50.1]
mortality at 0.63 ppm ([1]; 0.63 ppm, spray): 93% | mortality at 1.25 ppm ([1]; 1.25 ppm, spray): 100% | mortality at 2.5 ppm ([1]; 2.5 ppm, spray): 100% | mortality at 5 ppm ([1]; 5 ppm, spray): 100% | mortality at 10 ppm ([1]; 10 ppm, spray): 100%

CCOC(=O)OC(=C(C#N)c1ccc(C(C)(C)C)cc1)c1c(C)c(C)nn1CC [Compound 54.1]
mortality at 1.25 ppm ([1]; 1.25 ppm, spray): 100% | mortality at 2.5 ppm ([1]; 2.5 ppm, spray): 100% | mortality at 5 ppm ([1]; 5 ppm, spray): 100% | mortality at 10 ppm ([1]; 10 ppm, spray): 100%

CCn1nc(C)c(F)c1C(O)=C(C#N)c1ccc(C(C)(C)C)cc1 [Compound 81, 3-(1-ethyl-4-fluoro-3-methylpyrazol-5-yl)-2-(4-tertbutylphenyl)-3-hydroxy-acrylonitrile]
mortality at 600 ppm [4]: 60%

CCn1nc(C)c(Cl)c1C(OC(=O)C(C)(C)C)=C(C#N)c1ccc(C(C)(C)C)cc1 [Compound 90.1]
Acaricidal activity against adult spider mites (mortality, %) ([1]; 0.63 ppm, spray): 55% | mortality at 1.25 ppm ([1]; 1.25 ppm, spray): 100% | mortality at 2.5 ppm ([1]; 2.5 ppm, spray): 100% | mortality at 5 ppm ([1]; 5 ppm, spray): 100% | mortality at 10 ppm ([1]; 10 ppm, spray): 100% | inhibition at 2.5 ppm [2]: 73% | inhibition at 5 ppm [2]: 100% | inhibition at 10 ppm [2]: 100% | Systemic activity against spider mites through root absorbtion (mortality, %) (spider mites; 50 ppm): 66% | Systemic activity against spider mites through root absorbtion (mortality, %) (spider mites; 100 ppm): 98% | Systemic activity against spider mites through root absorbtion (mortality, %) (spider mites; 200 ppm): 100% | mortality at 0.16 ppm ([3]; 0.16 ppm, spray): 82% | mortality at 0.63 ppm ([3]; 0.63 ppm, spray): 90% | mortality at 2.5 ppm ([3]; 2.5 ppm, spray): 100%

CCn1nc(C)c(Cl)c1C(OC(=O)C(C)(C)C)=C(C#N)c1ccc(C(C)(C)C)cc1 [Compound 90.2]
Acaricidal activity against adult spider mites (mortality, %) ([1]; 0.63 ppm, spray): 28% | Acaricidal activity against adult spider mites (mortality, %) ([1]; 1.25 ppm, spray): 100% | Acaricidal activity against adult spider mites (mortality, %) ([1]; 2.5 ppm, spray): 100% | Acaricidal activity against adult spider mites (mortality, %) ([1]; 5 ppm, spray): 100% | Acaricidal activity against adult spider mites (mortality, %) ([1]; 10 ppm, spray): 100%

CCOC(=O)OC(=C(C#N)c1ccc(C(C)(C)C)cc1)c1c(Cl)c(C)nn1CC [Compound 101.1]
mortality at 1.25 ppm ([1]; 1.25 ppm, spray): 50% | mortality at 2.5 ppm ([1]; 2.5 ppm, spray): 91% | mortality at 5 ppm ([1]; 5 ppm, spray): 100% | mortality at 10 ppm ([1]; 10 ppm, spray): 100%

Cc1nn(C)c(/C(OC(=O)C(C)(C)C)=C(\C#N)c2ccc(C(C)(C)C)cc2)c1C [KC1, cyenopyrafen, reference compound]
mortality at 1.25 ppm [1]: 30% | mortality at 2.5 ppm [1]: 85% | mortality at 5 ppm [1]: 100% | mortality at 10 ppm [1]: 100% | inhibition at 2.5 ppm [2]: 7% | inhibition at 5 ppm [2]: 84% | inhibition at 10 ppm [2]: 100% | Systemic activity against spider mites through root absorbtion (mortality, %) (spider mites; 50 ppm): 0% | Systemic activity against spider mites through root absorbtion (mortality, %) (spider mites; 100 ppm): 0% | Systemic activity against spider mites through root absorbtion (mortality, %) (spider mites; 200 ppm): 0% | mortality at 0.16 ppm [3]: 20% | mortality at 0.63 ppm [3]: 70% | mortality at 2.5 ppm [3]: 82% | insecticidal and acaricidal activity [5]: good insecticidal and acaricidal activity

Cc1nn(C)c(/C(OC(=O)C(C)(C)C)=C(/C#N)c2ccc(C(C)(C)C)cc2)c1C [KC2, reference compound]
mortality at 1.25 ppm [1]: 0% | mortality at 2.5 ppm [1]: 55% | mortality at 5 ppm [1]: 100% | mortality at 10 ppm [1]: 100%

CCc1nn(C)c(/C(OC(C)=O)=C(\C#N)c2ccc(C(C)(C)C)cc2)c1Cl [KC3, reference compound]
mortality at 10 ppm [1]: 5% | mortality against spider mite (spider mite): more than 80%
